# Results published in patent US11840686B2, “Modulation of prekallikrein (PKK) expression” (Ionis Pharmaceuticals, Inc., priority 2013, dated 2023).
# Strand notation (5' to 3'): a small letter for the sugar, then the base; units joined by * are phosphorothioate-linked, units joined directly phosphodiester-linked; [ ] holds rarer units or linkages, { } end groups; capitals alone tell only the bases. e = 2'-O-(2-methoxyethyl) (MOE); [5mC] = 5-methylcytosine; d = 2'-deoxy (DNA)
# Tested on: human PKK mRNA
# Test: Antisense inhibition of human PKK mRNA in HepaRG cells, 5,000 nM (Example 2)
# Type: cell-based
# Outline: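 Chimeric MOE gapmers with full phosphorothioate backbones were tested once at 5,000 nM in electroporated HepaRG cells. After about 24 hours, quantitative PCR measured PKK mRNA relative to untreated control cells.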
# [1] = Table 9 experiment, HepaRG cells, 20,000 cells per well, electroporation with 5,000 nM antisense oligonucleotide, approx. 24 hours, PKK mRNA by RT-PCR (RTS3454), relative to untreated control cells
# [2] = Table 10 experiment, HepaRG cells, 20,000 cells per well, electroporation with 5,000 nM antisense oligonucleotide, approx. 24 hours, PKK mRNA by RT-PCR (RTS3454), relative to untreated control cells
# [3] = human PKK mRNA, HepaRG cells, 5,000 nM antisense oligonucleotide, Table 18
# [4] = Table 8, HepaRG cells, electroporation with 5,000 nM antisense oligonucleotide, approx. 24 hours, PKK mRNA by RT-PCR (RTS3454), relative to untreated control cells
# [5] = human PKK mRNA, HepaRG cells, 5-10-5 motif oligonucleotides targeting SEQ ID NO: 1 and 10
# [6] = HepaRG cells, electroporation, 5,000 nM antisense oligonucleotide, approx. 24 hours, primer probe set RTS3454, relative to untreated control cells, Table 11
# [7] = HepaRG cells, electroporation with 5,000 nM antisense oligonucleotide, approximately 24 hours, PKK mRNA by RT-PCR (RTS3454), relative to untreated control cells, Table 5 experiment
# [8] = Table 13, human PKK mRNA in HepaRG cells, 5-10-5 gapmers
# [9] = HepaRG cells, 5,000 nM antisense oligonucleotide, 5-10-5 gapmers, Table 16
# [10] = human PKK mRNA in HepaRG cells, 5-10-5 gapmers, Table 14
# [11] = HepaRG cells, 5,000 nM antisense oligonucleotide, 5-10-5 gapmers, Table 17
# [12] = HepaRG cells, electroporation with 5,000 nM antisense oligonucleotide, approximately 24 hours, PKK mRNA by RT-PCR (RTS3454), relative to untreated control cells, Table 6 experiment
# [13] = Table 7, HepaRG cells, electroporation with 5,000 nM antisense oligonucleotide, approx. 24 hours, PKK mRNA by RT-PCR (RTS3454), relative to untreated control cells
substance,measurement,setting,value
546345 (antisense e[5mC]*eA*eA*eG*e[5mC]*dA*dT*d[5mC]*dT*dT*dT*dT*d[5mC]*d[5mC]*d[5mC]*e[5mC]*e[5mC]*eT*eT*e[5mC]) [compound 546345],% inhibition,[1],86%
same,% inhibition,[2],80%
548730 (DNA eT*eG*eT*eA*d[5mC]*dT*dA*dG*dT*dT*dT*d[5mC]*d[5mC]*dT*eA*eT*eA; antisense) [compound 548730],% inhibition,[3],0%
547462 (antisense eG*eT*eG*eT*eA*dA*dT*dT*d[5mC]*dA*dA*dA*dG*dG*dA*eG*e[5mC]*e[5mC]*eT*eG) [compound 547462],% inhibition,[1],59%
same,% inhibition,[2],54%
546294 (antisense eG*eT*e[5mC]*e[5mC]*eT*dA*dT*dG*dA*dG*dT*dG*dA*d[5mC]*d[5mC]*e[5mC]*eT*e[5mC]*e[5mC]*eA) [compound 546294],% inhibition,[4],72%
547641 (e[5mC]*eT*eG*eT*e[5mC]*d[5mC]*dT*dA*dT*dA*dA*d[5mC]*dT*dA*dT*eA*eA*e[5mC]*eA*eG; antisense) [compound 547641],% inhibition,[5],43%
547676 (antisense e[5mC]*eT*eG*eT*e[5mC]*d[5mC]*dT*dA*dT*dA*dA*d[5mC]*dT*dA*dT*eA*eA*e[5mC]*eA*eA) [compound 547676],% inhibition,[5],41%
547513 (antisense eT*eG*e[5mC]*eA*eG*dA*dT*dG*dA*dG*dG*dA*d[5mC]*d[5mC]*d[5mC]*e[5mC]*e[5mC]*e[5mC]*eA*eG) [compound 547513],% inhibition,[6],72%
546383 (antisense eG*eG*eA*eT*eG*d[5mC]*dA*dA*dA*dG*dA*dA*dG*dA*dT*eG*e[5mC]*e[5mC]*eA*e[5mC]) [compound 546383],% inhibition,[6],57%
546163 (eA*e[5mC]*eT*eT*eG*d[5mC]*dT*dG*dG*dA*dA*dG*dA*dA*dA*eA*e[5mC]*eT*eG*eA; antisense) [compound 546163],% inhibition,[7],42%
546840 (e[5mC]*eT*eG*eT*e[5mC]*d[5mC]*dT*dA*dT*dA*dA*d[5mC]*dT*d[5mC]*dT*eA*eA*e[5mC]*eA*eG; antisense) [compound 546840],% inhibition,[8],53%
546912 (eA*e[5mC]*eA*eT*e[5mC]*dA*d[5mC]*dT*dG*dT*d[5mC]*d[5mC]*dT*dA*dT*eA*eA*e[5mC]*eT*eA; antisense) [compound 546912],% inhibition,[9],26%
546857 (eT*eA*eT*eA*eA*d[5mC]*dT*dA*dT*dA*dA*d[5mC]*dA*dG*dT*eA*eT*e[5mC]*eA*e[5mC]; antisense) [compound 546857],% inhibition,[10],7%
547020 (eG*eG*eA*eT*e[5mC]*dG*dG*dT*dG*dG*dT*dG*dG*dG*dA*eT*eT*eG*eG*eT; antisense) [compound 547020],% inhibition,[11],47%
548740 (DNA eT*eG*eT*eA*d[5mC]*dT*dA*dG*dT*dT*dT*d[5mC]*d[5mC]*eT*eA*eT*eA; antisense) [compound 548740],% inhibition,[3],0%
547417 (eT*e[5mC]*e[5mC]*eT*eT*dA*d[5mC]*dA*dG*dT*d[5mC]*dT*dT*d[5mC]*dT*eG*eG*eG*eA*eG; antisense) [compound 547417],% inhibition,[4],68%
547626 (antisense eA*e[5mC]*eA*eG*eT*dA*dT*d[5mC]*dA*d[5mC]*dT*dG*dT*d[5mC]*d[5mC]*eT*eA*eT*eG*eT) [compound 547626],% inhibition,[5],91%
548707 (DNA eA*e[5mC]*eT*dA*dG*dT*dT*dT*d[5mC]*d[5mC]*dT*dA*dT*eA*eA*e[5mC]; antisense) [compound 548707],% inhibition,"HepaRG cells, 5,000 nM antisense oligonucleotide, human PKK mRNA, Table 18",10%
546926 (eG*e[5mC]*e[5mC]*eA*eT*d[5mC]*d[5mC]*dA*dG*dG*dG*dT*dG*d[5mC]*dT*e[5mC]*eT*e[5mC]*e[5mC]*e[5mC]; antisense) [compound 546926],% inhibition,[9],81%
546258 (eA*e[5mC]*eA*eG*e[5mC]*dG*dA*dA*dT*d[5mC]*dA*dT*d[5mC]*dT*dT*eT*eG*eT*eG*e[5mC]; antisense) [compound 546258],% inhibition,[4],74%
546372 (antisense eG*eA*eA*eT*eT*dT*dG*dA*d[5mC]*dT*dT*dG*dA*dA*d[5mC]*eT*e[5mC]*eA*eG*eG) [compound 546372],% inhibition,[6],49%
546881 (eA*eG*eT*eT*eT*d[5mC]*d[5mC]*dT*dA*dT*dA*dA*d[5mC]*dA*dG*eT*eA*eT*e[5mC]*eA; antisense) [compound 546881],% inhibition,[10],49%
547770 (antisense eT*eG*e[5mC]*eT*eT*dT*d[5mC]*dT*dG*d[5mC]*d[5mC]*d[5mC]*dA*dA*d[5mC]*e[5mC]*eT*e[5mC]*eT*eA) [compound 547770],% inhibition,[11],48%
546409 (eG*eG*eG*eT*eT*dT*d[5mC]*dT*dG*d[5mC]*d[5mC]*dA*dA*d[5mC]*dA*eG*eT*eT*eT*e[5mC]; antisense) [compound 546409],% inhibition,"HepaRG cells, electroporation, 5,000 nM antisense oligonucleotide, approx. 24 hours, primer probe set RTS3454, relative to untreated control cells, Table 12",77%
548773 (antisense e[5mC]*eT*eA*eT*dA*dA*d[5mC]*dA*dG*dT*dA*dT*d[5mC]*eA*e[5mC]*eT*eG) [compound 548773],% inhibition,[3],0%
547523 (antisense eT*eT*eG*eT*e[5mC]*dA*dG*d[5mC]*d[5mC]*d[5mC]*d[5mC]*dT*dG*dG*dT*eT*eA*e[5mC]*eG*eG) [compound 547523],% inhibition,[6],69%
548748 (antisense eG*eT*eA*e[5mC]*dT*dA*dG*dT*dT*dT*d[5mC]*d[5mC]*dT*dA*eT*eA*eA*e[5mC]) [compound 548748],% inhibition,[3],0%
547478 (antisense e[5mC]*eA*eT*eT*e[5mC]*dT*dT*d[5mC]*dA*dT*dT*dT*dG*dT*dT*eA*e[5mC]*e[5mC]*eA*eA) [compound 547478],% inhibition,[1],85%
same,% inhibition,[2],55%
547672 (e[5mC]*eA*eA*eT*eA*dT*d[5mC]*dA*d[5mC]*dT*dG*dT*d[5mC]*d[5mC]*dT*eA*e[5mC]*eA*eA*e[5mC]; antisense) [compound 547672],% inhibition,[5],36%
546822 (eA*e[5mC]*eT*eA*eG*dT*dT*dT*d[5mC]*d[5mC]*dT*dA*dT*dA*dA*e[5mC]*eT*eG*e[5mC]*eT; antisense) [compound 546822],% inhibition,[8],32%
547330 (antisense e[5mC]*eT*eT*eA*eT*dT*dT*dG*dA*dT*dG*dA*d[5mC]*d[5mC]*dA*e[5mC]*eA*eT*eT*eG) [compound 547330],% inhibition,[12],60%
546170 (antisense eG*e[5mC]*eA*eA*e[5mC]*d[5mC]*dA*dA*dA*d[5mC]*d[5mC]*dT*dT*dT*dT*e[5mC]*eT*e[5mC]*e[5mC]*eA) [compound 546170],% inhibition,[7],54%
547442 (antisense eT*eG*eG*eT*eG*dT*d[5mC]*d[5mC]*dT*dA*dT*dG*dA*dG*dT*eG*eA*e[5mC]*e[5mC]*e[5mC]) [compound 547442],% inhibition,[4],42%
546220 (antisense eT*eA*eG*eG*eT*dG*d[5mC]*dA*dG*dA*dT*dG*dG*dT*d[5mC]*e[5mC]*eG*eA*e[5mC]*eA) [compound 546220],% inhibition,[13],71%
546346 (antisense eA*eG*eG*eG*eA*d[5mC]*d[5mC]*dA*d[5mC]*d[5mC]*dT*dG*dA*dA*dT*e[5mC]*eT*e[5mC]*e[5mC]*e[5mC]) [compound 546346],% inhibition,[1],83%
same,% inhibition,[2],70%
546935 (e[5mC]*eG*eT*eG*eG*dT*dT*dA*dG*d[5mC]*d[5mC]*dT*dG*dA*d[5mC]*eA*eT*e[5mC]*eT*e[5mC]; antisense) [compound 546935],% inhibition,[9],86%
546303 (antisense eT*eT*eT*eG*eT*dG*dA*dG*dA*dA*dA*dG*dG*dT*dG*eT*eA*eT*e[5mC]*eT) [compound 546303],% inhibition,[4],77%
547379 (e[5mC]*eT*e[5mC]*eG*eA*dT*dT*dT*dT*d[5mC]*d[5mC]*dA*dT*dA*d[5mC]*eA*eT*eT*eT*eG; antisense) [compound 547379],% inhibition,[13],37%
547568 (eG*e[5mC]*eA*e[5mC]*e[5mC]*d[5mC]*dT*dT*dT*dT*d[5mC]*dA*dT*dT*dG*eA*eG*eA*eT*eT; antisense) [compound 547568],% inhibition,[8],70%
546175 (antisense e[5mC]*eT*eG*e[5mC]*eA*d[5mC]*d[5mC]*dT*dG*dT*dT*d[5mC]*dG*dA*dT*eG*eT*eA*e[5mC]*eT) [compound 546175],% inhibition,[12],78%
547415 (eT*e[5mC]*eT*eG*eG*dG*dA*dG*dT*dA*dA*dA*dG*dA*dA*eT*eA*eA*eG*eT; antisense) [compound 547415],% inhibition,[4],71%
547351 (antisense eT*eT*eT*eG*eG*d[5mC]*dA*dT*dT*d[5mC]*dT*dT*d[5mC]*dA*dA*e[5mC]*eA*e[5mC]*eT*eG) [compound 547351],% inhibition,[12],92%
